Measurements published in patent publication EP1090017B1, “NOVEL COMPOUNDS DERIVED FROM ALPHA-D-XYLOSE, PREPARATION METHOD AND THERAPEUTIC USE” (FOURNIER INDUSTRIE ET SANTE, priority 1998, dated 1999).

How the values were obtained:
cholestérol sérique = assay: Serum cholesterol (area under curve) measured periodically during the 14-week apoE-deficient mouse trial; type: in vivo, souris; details: for AUC (aire sous courbe du cholestérol): whole 14 weeks of the trial
Source text: (§1) L'activité antiathéromateuse des composés selon l'invention a été mise en évidence sur des souris femelles, déficientes en apolipoprotéine E (homozygotes). Selon le protocole de ce test, le produit à évaluer est administré dans la nourriture (régime alimentaire standard) pendant 14 semaines. Après ce laps de temps, les souris sont euthanasiées et le coeur et la crosse aortique sont prélevés. Les surfaces lésées sont évaluées selon la méthode décrite dans Arteriosclerosis, 1990, 10, p. 316-323.
Durant les 14 semaines de l'essai décrit ci-dessus dans le but d'évaluer les propriétés antiathéromateuses des composés, on a mesuré périodiquement le taux de cholestérol sérique des souris traitées et des souris témoins, et le résultat est exprimé sous la forme aire sous courbe (AUC) du cholestérol pendant toute la durée de l'essai. Les résultats obtenus avec le composé de l'exemple 2 sont reportés dans le tableau II où AUC représente l'aire sous courbe (exprimée en g.jour.1^-1) et la variation (en pourcentage) est appréciée par rapport au groupe témoin. Tableau II

[1] = system: souris femelles, déficientes en apolipoprotéine E (homozygotes); assay: Antiatheromatous activity in apolipoprotein E-deficient mice: lesion surface after 14 weeks of compound in the food; type: in vivo; details: 300 mg/kg in the food, versus untreated control mice
Source text: as §1
Le tableau I présente les résultats obtenus selon ce test pratiqué avec le composé de l'exemple 2 à différentes doses. Les résultats sont exprimés en pourcentage de réduction de la surface des plaques d'athérome, par rapport à un groupe de souris témoin non traitées. Tableau I

SMILES | variation (%) de l'AUC du cholestérol (cholestérol sérique; 10 mg/kg, versus control group) [%] | AUC (aire sous courbe du cholestérol) (cholestérol sérique; 10 mg/kg) [g.jour.1^-1] | AUC (aire sous courbe du cholestérol) (cholestérol sérique; 100 mg/kg) [g.jour.1^-1] | AUC (aire sous courbe du cholestérol) (cholestérol sérique; 300 mg/kg) [g.jour.1^-1] | Réduction (%) de la surface des plaques d'athérome [1] [%]
N#Cc1ccc(C(=O)c2ccc(S[C@H]3SC[C@@H](O)[C@H](O)[C@H]3O)cc2)cc1 [Exemple 2, [4-(4-cyanobenzoyl)phényl] 1,5-dithio-α-D-xylopyranoside] | 0 | 585 ± 15 | 507 ± 16 | 505 ± 20 | –
N#Cc1ccc(C(=O)c2ccc(S[C@@H]3SC[C@@H](O)[C@H](O)[C@H]3O)cc2)cc1 [[4-(4-cyanobenzoyl)phényl] 1,5-dithio-β-D-xylopyranoside] | – | – | – | – | 30
